# Assay results taken from US20110166097A1, “TAXANE COMPOUNDS FOR TREATING EYE DISEASE” (Osiris Therapeutics, Inc., priority 2008, published 2011).
# How the values were obtained:
# [1] = test system: viable circulating endothelial cell precursors (CEPS); test: Cobalamin-paclitaxel bioconjugate dose study: viable circulating endothelial cell precursors; type: in vivo; settings: mice
# Description: (§1) The effects on counts of viable circulating endothelial cell precursors and white blood cells are measured after 28 days. Corresponding amounts of the cobalamin-paclitaxel bioconjugate, viable circulating endothelial cell precursors (CEPS), and white blood cells are presented in the Table 1:
# [2] = test system: white blood cells; test: Cobalamin-paclitaxel bioconjugate dose study: white blood cell count; type: in vivo; settings: mice, about 2 mg/kg, 28 days
# Description: as §1
# [3] = test system: bFGF-stimulated formation of new blood vessel in the Matrigel plug; test: Matrigel plug perfusion in vivo assay; settings: mice, 2, 6 and 30 mg/kg (paclitaxel units), oral gavage
# Description: A Matrigel® plug perfusion in vivo assay is performed to determine the anti-angiogenic efficacy of the cobalamin-paclitaxel bioconjugate (Cob-Pac) of Example 1. The assay uses Matrigel®, a gelatinous protein mixture secreted by mouse tumor cells (BD Biosciences, San Jose, Calif.), to duplicate tissue environments. Matrigel® is liquid at room temperature, but when injected into the animal, forms a solid plug. If a growth vessel stimulant such as basic fibroblast growth factor (bFGF) is mixed with the Matrigel®, the bFGF stimulates the formation of new blood vessel in the plug, which can be monitored in the animal via fluorescence techniques. In the current study, Matrigel® is injected either alone or with bFGF subcutaneously into mice.
# [4] = test system: choroidal neovascularization by laser burns of the eye; test: Choroidal neovascularization model (fluorescein angiography leakage score); type: in vivo; settings: rats
# Description: Groups of 8 rats/dosage group or vehicle are neovascularized by laser burns on the eye. Afterwards, the eye is immediately treated with a cobalamin-paclitaxel bioconjugate prepared in accordance with Example 1 at a dose of 1.5 μg/2 μL, 5.0 μg/2 μL, and 15 μg/2 μL (indicated as B.C. in FIG. 1). The treatment regimen also includes a vehicle and Kenacort Retard® (4% triamcinolone acetonide), as a positive control. Each treatment is scored at 7, 14, and 21 days post-treatment by infusing the eye with fluorescein and scoring the leakage using angiography. A score of 0 indicates no leakage while a score of 3 indicates severe leakage.
# [5] = test system: choroidal neovascularization lesions; test: Lesion study (flat mount evaluation, choroidal neovascularization); type: in vivo, rats; settings: after 21 days
# Description: In another study, flat mount evaluation of the eyes can be carried out at the end of the study because angiography may not provide a full evaluation of the effect of the drug. At the end of the study, the eyes are removed, histologically processed and all lesions can be seen (including those that can not be detected by angiography). Such an evaluation can be used as a better measure of the choroidal neovascularization model.
# Dosages used are 1.5 μg/2 μL, 5.0 μg/2 μL, and 15 μg/2 μL. The treatments also include a vehicle and Kenacort Retard® (4% triamcinolone acetonide). After 21 days, the eyes are removed, histologically processed, and the lesion size scored in μm^3.
# [6] = Water solubility; type: physicochemical; settings: conjugated to cobalt atom of cobalamin
structure (smiles),measurement,setting,value
"CC(=O)O[C@H]1C(=O)[C@@]2(C)C([C@H](OC(=O)c3ccccc3)[C@]3(O)C[C@H](OC(=O)[C@H](OC(=O)C[NH+](C)CC[CH2][Co+][N]4/C5=C(/C)C6=N/C(=C\C7=NC(=C(/C)C8=NC(C(C)C4C(CC(N)=O)C5(C)CCC(=O)NCC(C)OP(=O)([O-])OC4C(CO)OC(n5cnc9cc(C)c(C)cc95)C4O)C(C)(CC(N)=O)C8CCC(N)=O)/C(C)(CC(N)=O)C7CCC(N)=O)C(C)(C)C6CCC(N)=O)[C@@H](NC(=O)c4ccccc4)c4ccccc4)C(C)=C1C3(C)C)[C@]1(OC(C)=O)COC1C[C@@H]2O.[Cl-] (stereo partly drawn) [cobalamin-paclitaxel bioconjugate, Cbl-(CH2)3N(CH3)CH2COO-2′-PTX]",Most effective dose (viable CEPS),"[1]; 28-day dose study, dose as paclitaxel",about 2 mg/kg
same,Anti-angiogenic effect on viable CEPS,"[1]; at each dose (1.5-30 mg/kg), 28 days",marked decrease in viable CEPS
same,Toxicity by white blood cell count,[2],no neutropenia
same,Effect on growth of new blood vessels in Matrigel plug,[3],inhibits the growth of new blood vessels in each instance shown
same,Anti-angiogenic result by angiography leakage score (FIG. 1),"[4]; after 7 days, intermediate and high doses (5.0 μg/2 μL and 15 μg/2 μL) to the eye",show anti-angiogenic results
same,Anti-angiogenic result by angiography leakage score (FIG. 1),"[4]; after 14 days, high dose (15 μg/2 μL) to the eye",still provides anti-angiogenic benefit
same,Number of blood vessel lesions (FIG. 2),"[5]; rats, 1.5, 5.0 and 15 μg/2 μL to the eye",decrease in a concentration dependent manner
same,Inhibition of new blood vessel growth (lesion study),"[5]; rats, high and medium concentrations (15 and 5.0 μg/2 μL)",efficacious in inhibiting new blood vessel growth
same,solubility,[6],> 100 mg/mL
